Assay results reported in patent US11702469B2, “Recombinant EGFL7, EGFL7 antibodies, and uses thereof” (Ohio State Innovation Foundation, priority 2017, dated 2023).

Columns and labels:
[1] = test system: acute myeloid leukemia; settings: PSC-833 arm with cytarabine, daunorubicin and etoposide; cited from earlier work
[2] = test system: FLT3-ITD AML; settings: phase I/II study in AML; cited from earlier work
[3] = test system: NOTCH signaling; assay: Gamma-secretase inhibitor on Parsatuzumab induced NOTCH activation, primary blasts; assay type: cell-based, human
Description: FIG. 24A-24G. EGFL7 prevents activation of NOTCH signaling in AML cells. (FIG. 24A) Overview of experiments using DLL4-FC and IgG-FC control coated plates to induce NOTCH activation. (FIG. 24B) THP-1 cells were pre-treated with 10 μM γ-secretase inhibitor (AVA), 100 μg/ml anti-EGFL7 antibody or 0.25 μM rEGFL7 for 30 min, then transferred to IgG-Fc or DLL4-Fc coated plates. After 4 h of incubation total RNA from THP-1 cells was extracted for qRT-PCR analysis of HES1 with β-ACTIN as internal control. ^###P<0.001 DLL4-FC vs IgG-FC; ***P<0.001 DLL4+AVA, DLL4+rEGFL7, and DLL4+anti-EGFL7 vs DLL4-FC. […] THP-1 cells were treated with the indicated concentration of anti-EGFL7 (@E7) then assessed for apoptosis using (FIG. 24D) AnnexinV+ staining and FACS; *P<0.05 (FIG. 24E) Immuno-blotting for PARP1 and Casp3 cleavage. (FIG. 24F) Cell differentiation was assessed by CD11B and CD14 staining 96-hours post anti-EGFL7 treatments; *P<0.05. (FIG. 24G) To determine whether activation of NOTCH by DLL4-Fc could be accentuated by anti-EGFL7 treatment, THP-1 cells were first treated with anti-EGFL7 (100 μg/ml) and then cultured on DLL4-FC or IgG-Fc coated plates and then assessed for apoptosis using AnnexinV+ staining and FACS. *P<0.05 DLL4-Fc and anti-EGFL7; vs DLL4-FC+anti-EGFL7. […]

[4] = test system: HES1; assay: DLL4-Fc coated plate NOTCH activation (HES1 qRT-PCR), THP-1; assay type: cell-based, human
Description: FIG. 24A-24G. EGFL7 prevents activation of NOTCH signaling in AML cells. (FIG. 24A) Overview of experiments using DLL4-FC and IgG-FC control coated plates to induce NOTCH activation. (FIG. 24B) THP-1 cells were pre-treated with 10 μM γ-secretase inhibitor (AVA), 100 μg/ml anti-EGFL7 antibody or 0.25 μM rEGFL7 for 30 min, then transferred to IgG-Fc or DLL4-Fc coated plates. After 4 h of incubation total RNA from THP-1 cells was extracted for qRT-PCR analysis of HES1 with β-ACTIN as internal control. ^###P<0.001 DLL4-FC vs IgG-FC; ***P<0.001 DLL4+AVA, DLL4+rEGFL7, and DLL4+anti-EGFL7 vs DLL4-FC. (FIG. 24C) Primary AML blasts were pretreated with 10 μM γ-secretase inhibitor (AVA), 100 μg/ml anti-EGFL7 antibody or 0.25 μM rEGFL7 for 30 min, then transferred to IgG-Fc or DLL4-Fc coated plates. After 4 h of incubation, total RNA was extracted for RT-PCR analysis of HES1 mRNA with β-ACTIN as internal control. ^###P<0.001 DLL4-Fc vs IgG-Fc; *P<0.05, ***P<0.001 vs DLL4 Fc. THP-1 cells were treated with the indicated concentration of anti-EGFL7 (@E7) then assessed for apoptosis using (FIG. 24D) AnnexinV+ staining and FACS; *P<0.05 (FIG. 24E) Immuno-blotting for PARP1 and Casp3 cleavage. (FIG. 24F) Cell differentiation was assessed by CD11B and CD14 staining 96-hours post anti-EGFL7 treatments; *P<0.05. (FIG. 24G) To determine whether activation of NOTCH by DLL4-Fc could be accentuated by anti-EGFL7 treatment, THP-1 cells were first treated with anti-EGFL7 (100 μg/ml) and then cultured on DLL4-FC or IgG-Fc coated plates and then assessed for apoptosis using AnnexinV+ staining and FACS. *P<0.05 DLL4-Fc and anti-EGFL7; vs DLL4-FC+anti-EGFL7.
Total RNA was extracted using Trizol reagent (Invitrogen, Carlsbad, Calif., USA). cDNA was synthesized using SuperScript III reagents (Invitrogen) according to the manufacturer's instruction. Quantitative Real-Time RT-PCR was performed using commercially available TaqMan Gene Expression Assay primers and the 7900HT Fast Real-Time PCR System (Applied Biosystems, Foster City, Calif., USA). […]

[5] = test system: HES1; assay: OP9-DLL1 co-culture NOTCH activation (HES1 RT-PCR), THP-1; assay type: cell-based, human; settings: THP-1 co-cultured with OP9-DLL1
From the text: FIG. 27. EGFL7 prevents NOTCH ligand inactivation of Notch signaling in AML cells. (A) Overview of experiments involving co-culture of THP-1 cells with mouse stromal cells overexpressing DLL1. (B) Total RNA was extracted for RT-PCR analysis of HES1 with β-ACTIN as internal control. ^###P<0.001 OP9-DLL1 vs OP9; *P<0.05, **P<0.01 vs untreated control.
Total RNA was extracted using Trizol reagent (Invitrogen, Carlsbad, Calif., USA). cDNA was synthesized using SuperScript III reagents (Invitrogen) according to the manufacturer's instruction. Quantitative Real-Time RT-PCR was performed using commercially available TaqMan Gene Expression Assay primers and the 7900HT Fast Real-Time PCR System (Applied Biosystems, Foster City, Calif., USA). The expression levels of target genes were normalized to β-ACTIN. Relative expression was calculated by using the comparative 2^−ΔΔct method.
It was next determined whether EGFL7 is inhibiting NOTCH signaling in AML cells by competing with canonical NOTCH ligand binding. To perform these experiments, THP-1 cells were cultured on DLL4-Fc and IgG-Fc (control) coated plates to activate NOTCH signaling. The effect of rEGFL7 and anti-EGFL7 on this DLL4-Fc NOTCH activation was also tested (FIG. 24A). […] For these experiments, co-culture was performed of THP-1 cells with stromal cells (OP9) overexpressing membrane bound DLL1 (OP9-DLL1)^25 (FIG. 27A).

For `C/C=C/C[C@@H](C)C(=O)[C@H]1C(=O)N[C@@H](C(C)C)C(=O)N(C)CC(=O)N(C)[C@@H](CC(C)C)C(=O)N[C@@H](C(C)C)C(=O)N(C)[C@@H](CC(C)C)C(=O)N[C@@H](C)C(=O)N[C@H](C)C(=O)N(C)[C@@H](CC(C)C)C(=O)N(C)[C@@H](CC(C)C)C(=O)N(C)[C@@H](C(C)C)C(=O)N1C` [PSC-833, valspodar], the early deaths [1] is given as “excessive early deaths”.

For `CCc1nc(C(N)=O)c(Nc2ccc(N3CCC(N4CCN(C)CC4)CC3)c(OC)c2)nc1NC1CCOCC1` [Gilteritinib], the tolerability and safety [2] is listed as “tolerable, safe”.

With `NC(=O)[C@@H](CCC(F)(F)F)N(Cc1ccc(-c2ncon2)cc1F)S(=O)(=O)c1ccc(Cl)cc1` [AVA, Avagacestat] the “Parsatuzumab induced NOTCH activation” value [3] was “blocked”, the “DLL4-Fc-mediated NOTCH activation (HES1)” value ([4]; pre-treated 30 min: 10 μM AVA, 100 μg/ml anti-EGFL7 or 0.25 μM rEGFL7, then 4 h, vs DLL4-FC) was “significantly reduced” and the “DLL1-mediated NOTCH activation (HES1)” value [5] was “significantly reduced”.

In the case of “DLL4-Fc: Recombinant human DLL4 (Fc chimera, ab108557), canonical NOTCH ligand”, the “NOTCH activation assessed by HES1 expression” value ([4]; DLL4-Fc vs IgG-Fc coated plates, 4 h) is reported as “increases in NOTCH activation”.
